Data set [1] is described as follows: exposure to atmospheric humidity (stability, hygroscopicity). It is filed as physicochemical.
The subject of data set [2] is dopamine receptors. To be noted: cited from earlier work.

As to `CC(C)COc1ccc(CNC(=O)N(Cc2ccc(F)cc2)C2CCN(C)CC2)cc1.CC(C)COc1ccc(CNC(=O)N(Cc2ccc(F)cc2)C2CCN(C)CC2)cc1.O=C(O)C(O)C(O)C(=O)O` [N-(4-fluorobenzyl)-N-(1-methylpiperidin-4-yl)-N′-(4-(2-methylpropyloxy)-phenylmethyl)carbamide hemitartrate], in data set [1], the hygroscopicity result is “not hygroscopic”. In addition, in data set [1] (exposed to atmospheric humidity), the “stability when exposed to atmospheric humidity” value is “stable”.
For the compound “N-(4-fluorobenzyl)-N-(1-methylpiperidin-4-yl)-N′ -(4-(2-methyl-propyloxy)phenylmethyl)carbamide hemitartrate [pimavanserin hemitartrate]”, the “affinity for dopamine receptors” value in data set [2] is on record as “no affinity”.

The record behind these values is patent publication US20210171464A1 (OLON S.P.A., priority 2017, published 2021).
